Experimental data reported in PMC11061149, “Protein mimetic 2D FAST rescues alpha synuclein aggregation mediated early and post disease Parkinson’s phenotypes” (Nature Communications, 2024).
Values joined by “and” are separate entries in the source; they are usually repeats but may differ in a detail not shown here. Identical values can stand only once.

What was measured:
[1] = target: T1, αS fibers-catalyzed aggregation of αS (Homo sapiens, UniProt P37840); assay: αS fibers-catalyzed aggregation of αS, ThT kinetic assay; type: biochemical
T1 construct: made in house; host or cells: E. coli BL21(DE3)

[2] = tested on: HEK293 cells stably expressing αS-A53T-YFP; assay: HEK cells transfected with αS aggregated with or without ligand: inclusions (ProteoStat dye, confocal); type: cell-based, human
Protocol: The aggregation of endogenous monomeric αS-A53T-YFP into fibers can be detected by the intracellular fluorescent puncta (Fig. 3a, + αS). A solution of 100 μM αS was aggregated in the absence and presence of NS132 at an equimolar ratio for four days. The resulting solutions of αS fibers (5 μM in monomeric αS, ±NS132) were introduced to HEK cells in the presence of Lipofectamine 3000 for 24 h. In contrast to the control (no fibers), we observed a significant number of fluorescent inclusions in the presence of αS fibers (Fig. 3a, white arrows, +αS), which was a consequence of the templating of endogenous monomeric αS-A53T-YFP by the exogenously added αS fibers. […] Moreover, we observed the colocalization of an adaptor protein, p62, in the aggresome of αS inclusions in HEK cells (Fig. 3b, +αS, red),[51]–[54]. […] The autophagy machinery regulates many vital cellular processes and its impairment due to αS aggregation can lead to PD and other neurodegenerative disorders[51]–[54]. […] We also quantified the inclusions (αS-A53T-YFP) using a ProteoStat dye-based high throughput 96-well plate reader-based assay recently developed in our lab[24]. The ProteoStat dye-based intensity of HEK cells treated with αS fibers was ~4-5 fold higher than the control (no fibers) (Fig. 3c, +αS, black). […] Therefore, we used HEK cells to test the cytotoxicity of the aggregated solution of αS in the absence and presence of NS132 (Fig. 3d). The viability of HEK cells was measured using the (3-(4,5-dimethylthiazol-2-yl)-2,5-diphenyltetrazolium bromide) (MTT) reduction based assay.
The Lipofectamine solution was made fresh for each transfection to avoid possible denaturation of reagents in a stored stock solution. For each transfection protocol, the total volume of lipofectamine solution required is equivalent to 30% of the total volume of αS/lipofectamine solution needed. […]
This assay was performed based on a previous protocol with slight modifications. […] The resulting cell pellets were then homogenized, transferred into an autoclaved 1.7 mL microcentrifuge tube, and counted to normalize the data. […]

ThT fluorescence intensity, Average ([1]; 100 µM αS + αS fibers (20% monomer conc.) + equimolar ligand, time 0 hr): 181.667
effect on αS fibers-catalyzed aggregation of αS, in words ([1]; 100 μM αS, preformed αS fibers 20%, equimolar ligand): wholly suppressed
ThT fluorescence intensity, Average ([1]; seeded, equimolar ligand, time 3 hr): 168
ThT fluorescence intensity, Average ([1]; seeded, equimolar ligand, time 6 hr): 160.333
ThT fluorescence intensity, Average ([1]; seeded, equimolar ligand, time 9 hr): 164
ThT fluorescence intensity, Average ([1]; seeded, equimolar ligand, time 12 hr): 200.667
ThT fluorescence intensity, Average ([1]; seeded, equimolar ligand, time 24 hr): 255
ThT fluorescence intensity, Average ([1]; seeded, equimolar ligand, time 36 hr): 243.333
ThT fluorescence intensity, Average ([1]; seeded, equimolar ligand, time 48 hr): 299.333
Compound: Cc1ccc(NC(=O)c2ccc(NC(=O)c3ccc([N+](=O)[O-])c(NCCc4c[nH]c5ccccc45)n3)c(NCC3CCCCC3)n2)c(OCC(=O)O)n1 [NS132]
intracellular αS-A53T-YFP inclusions (confocal), in words ([2]; HEK293 cells transfected with αS aggregated in the presence of NS132): significant decrease
ProteoStat intensity versus control (no fibers), in words ([2]; HEK cells + 5 μM αS aggregated with equimolar NS132): did not observe a significant difference
ProteoStat dye intensity (raw), individual experiments ([2]; HEK cells + 5 μM αS fibers aggregated with equimolar NS132, 24 h): 538 and 599 and 420 and 486 and 619 and 476 and 665 and 696 and 519 and 621 and 647 and 693
